In US8394856B2, “(-)-Hydroxycitric acid for controlling inflammation” (Glykon Technologies Group, LLC, priority 2002, dated 2013):

How the values were obtained:
[1] = literature (Sullivan and Gruen 1985); cited from earlier work
[2] = treated rats; Roche researchers (Sullivan and Triscari 1976); cited from earlier work
C-reactive protein = C-reactive protein in serum of rats fed a 30% fat, approximately 20% simple sugar diet; type: in vivo; settings: salt approximately 76 mg/day
From the text: (§1) To test the properties of HCA in various forms under conditions similar to those found in human clinical trials, the inventor arranged for rats to be fed a diet in which 30% of the calories were obtained from fat under standard conditions, with a further approximately 20% of the calories being supplied as simple sugars. Such a dietary combination of fat and simple sugars is noted as promoting a variety of metabolic imbalances and dysfunctions. The rats were intubated twice daily with one of five HCA salts or placebo. On weekends, the HCA was added to the food at an approprate dosage. The amount of HCA in each arm of 8 animals was based on the minimum dosage which had been found effective in the form of the pure trisodium salt of HCA in tests by Hoffmann-La Roche in animals ingesting a 70% glucose diet, i.e., 0.33 mmoles/kg body weight HCA given twice per day. […]
Tests were performed for C-reactive protein. […] Optical Density (OD) readings in the test kit used were 1 unit equals 50 picograms/mL. […]

[3] = Body weight in the same rat study; type: in vivo, rats; settings: week 6; data not shown
From the text: as §1, with “day. The HCA salts used were these: KCaHCA=a mixed potassium and calcium or double metal HCA salt commercially marketed as being entirely water soluble and of relatively high purity; KHCA=a relatively clean commercial potassium salt of HCA with a good mineral ligand attachment supplying 4467 mg potassium/100 grams of material; KMgHCA=three different dosage levels of an experimental potassium and magnesium salt with special characteristics, but suspected of being relatively unstable when exposed to stomach acid.” for “day.”

SMILES	crossing of the blood-brain barrier [1]	plasma levels of glucose, insulin, or free fatty acids relative to controls [2]	absolute CRP readings at week 4 compared with initially (C-reactive protein)	Δ OD units after 4 wks (C-reactive protein) (C-reactive protein; intubated twice daily, serum, start to week 4, 1 OD unit equals 50 picograms/mL) [OD units]	body weight versus control [3]
O=C(O)CC(O)(C(=O)O)C(O)C(=O)O (single isomer, unassigned; (-)) [HCA, (−)-Hydroxycitric acid]	does not cross the blood-brain barrier	no significant differences	–	–	–
O=C([O-])CC(O)(C(=O)[O-])C(O)C(=O)[O-].[K+].[K+].[K+] (centres unmarked) [KHCA, potassium hydroxycitrate]	–	–	lower at week 4 than initially	−155	greatest trend differences
